Measurements as given in ChEMBL document CHEMBL1123597, “Synthesis and structure-activity relationships of pyrazolo[4,3-d]pyrimidin-7-ones as adenosine receptor antagonists” (J Med Chem, 1987).

Legend:
[1] = biological target: T1, Adenosine receptor A1 (Rattus norvegicus) (UniProt P25099); settings: Brain; Membrane
T1 sequence (whole entry): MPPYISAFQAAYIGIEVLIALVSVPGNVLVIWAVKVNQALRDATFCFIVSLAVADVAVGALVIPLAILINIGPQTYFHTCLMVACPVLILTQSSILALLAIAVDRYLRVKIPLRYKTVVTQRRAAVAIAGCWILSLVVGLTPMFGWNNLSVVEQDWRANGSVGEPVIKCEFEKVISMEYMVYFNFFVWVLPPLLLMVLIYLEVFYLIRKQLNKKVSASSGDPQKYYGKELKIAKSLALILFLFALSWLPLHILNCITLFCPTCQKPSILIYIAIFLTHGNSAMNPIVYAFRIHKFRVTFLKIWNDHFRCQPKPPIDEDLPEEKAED
Description: Binding affinity against adenosine A1 receptor in rat brain membrane preparations using N6-[3H]cyclohexyladenosine as radioligand, PCY = log (100000/IC50).

Adenosine receptor A1 = biological target: T2, Adenosine receptor A1 (Rattus norvegicus, UniProt P25099); experiment: Binding affinity against adenosine A1 receptor in rat brain membrane preparations using N6-[3H]cyclohexyladenosine as a radioligand; type: cell membranes
T2 sequence (P25099 whole entry): T1 sequence (whole entry)
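For PCY in this document: radioligand displacement of N6-[3H]cyclohexyladenosine binding in rat brain membranes, PCY computed as the log of 100000 divided by IC50.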

SMILES | PCY [1] | IC50 (Adenosine receptor A1)
Cc1nn(C)c2c(O)nc(-c3cccc(N)c3)nc12 | 1.8 | –
Cc1nn(C)c2c(O)nc(-c3ccc(Cl)c(Cl)c3)nc12 | 2 | –
Cc1nn(C)c2c(O)nc(-c3ccccc3)nc12 | 2 | –
CCn1nc(C)c2nc(Cc3ccccc3)nc(O)c21 | – | 820 nM
Cc1nn(C)c2c(=O)[nH]c(Cc3ccccc3)nc12 | – | 1310 nM
COc1ccccc1-c1nc(O)c2c(n1)c(C)nn2C | 1 | –
COc1ccc(-c2nc(O)c3c(n2)c(C)nn3C)c(OC)c1 | 1.3 | –
COc1ccc(-c2nc(O)c3c(n2)c(C)nn3C)cc1OC | 1.7 | –
Cc1nn(C)c2c(O)nc(-c3cccnc3)nc12 | 1.5 | –
COc1cc(OC)cc(-c2nc(O)c3c(n2)c(C)nn3C)c1 | 1.2 | 7060 nM
Cc1nn(C)c2c(O)nc(-c3ccccc3N)nc12 | 2.6 | 230 nM
Cc1nn(C)c2c(O)nc(-c3cccc([N+](=O)[O-])c3)nc12 | 1.9 | –
Cc1nn(C)c2c(O)nc(-c3ccc([N+](=O)[O-])cc3)nc12 | 2.1 | –
CC(Sc1nc(SC(C)C(N)=O)c2cnn(-c3ccccc3)c2n1)C(N)=O (centres undefined) | – | 1030 nM
COc1cccc(-c2nc(O)c3c(n2)c(C)nn3C)c1 | 1.8 | –
Cc1nn(C)c2c(O)nc(-c3ccc(Cl)cc3N)nc12 | 2.5 | –
Cc1nn(C)c2c(=O)[nH]c(-c3ccc(Cl)cc3N)nc12 | – | 310 nM
CCn1nc(C)c2nc(-c3ccccc3)nc(O)c21 | 2.2 | –
Cc1nn(C)c2c(O)ncnc12 | 0.7 | –
Cc1nn(C)c2c(=O)[nH]cnc12 | – | 20100 nM
Cc1nn(C)c2c(O)nc(-c3ccncc3)nc12 | 2 | –
COc1cccc(-c2nc3c(C)nn(C)c3c(=O)[nH]2)c1 | – | 1470 nM
Cc1nn(C)c2c(O)nc(-c3ccc(N)cc3)nc12 | 2.4 | –
Cc1nn(C)c2c(O)nc(Cc3ccccc3)nc12 | 1.9 | –
Cc1nn(C)c2c(O)nc(-c3ccc(Cl)cc3)nc12 | 2.4 | –
CCn1nc(C)c2nc(-c3ccncc3)[nH]c(=O)c21 | – | 250 nM
Cc1nn(C)c2c(O)nc(-c3ccc(S(=O)(=O)O)cc3)nc12 | 1.6 | 2300 nM

More lines, now with the values ahead:

PCY [1] | IC50 (Adenosine receptor A1) | SMILES
3.6 | – | Cn1c(=O)c2nc(-c3ccc(S(=O)(=O)O)cc3)[nH]c2n(C)c1=O
4.3 | 5.5 nM | Cn1c(=O)c2nc(-c3ccccc3N)[nH]c2n(C)c1=O
– | 50 nM | Cn1c(=O)c2nc(-c3cccc([N+](=O)[O-])c3)[nH]c2n(C)c1=O
1.8 | – | Cn1c(=O)c2nc(Cc3ccccc3)[nH]c2n(C)c1=O
– | 0.8 nM | Cn1c(=O)c2[nH]c(-c3ccc(Cl)cc3)nc2n(C)c1=O
– | 200 nM | COc1ccc(-c2nc3c([nH]2)c(=O)n(C)c(=O)n3C)c(OC)c1
4.7 | – | Cn1c(=O)c2nc(-c3ccc(N)cc3)[nH]c2n(C)c1=O
3.3 | – | Cn1c(=O)c2nc(-c3cccnc3)[nH]c2n(C)c1=O
– | 10 nM | Cn1c(=O)c2[nH]c(-c3cccc(N)c3)nc2n(C)c1=O
5.4 | – | Cn1c(=O)c2nc(-c3ccc(Cl)cc3N)[nH]c2n(C)c1=O
4.5 | 3 nM | CCn1c(=O)n(C)c(=O)c2[nH]c(-c3ccccc3)nc21
– | 50 nM | Cn1c(=O)c2[nH]c(-c3cccnc3)nc2n(C)c1=O
– | 0.8 nM | Cc1ccc(-c2nc3c([nH]2)c(=O)n(C)c(=O)n3C)cc1
– | 350 nM | COc1ccccc1-c1nc2c([nH]1)c(=O)n(C)c(=O)n2C
– | 1.8 nM | Cn1c(=O)c2[nH]c(-c3ccc(N)cc3)nc2n(C)c1=O
– | 68 nM | Cc1nn(C)c2c(=O)[nH]c(-c3ccc(S(=O)(=O)NCCN(C)C)cc3)nc12
– | 8 nM | Cn1c(=O)c2[nH]c(-c3ccc([N+](=O)[O-])cc3)nc2n(C)c1=O
3.7 | – | COc1cccc(-c2nc3c(=O)n(C)c(=O)n(C)c3[nH]2)c1
4.3 | 5 nM | Cn1c(=O)c2nc(-c3ccc(Cl)c(Cl)c3)[nH]c2n(C)c1=O
2.4 | – | Cc1ccc(-c2nc(O)c3c(n2)c(C)nn3C)cc1
2.5 | – | COc1ccccc1-c1nc2c(=O)n(C)c(=O)n(C)c2[nH]1
– | 0.4 nM | Cn1c(=O)c2[nH]c(-c3ccc(Cl)cc3N)nc2n(C)c1=O
– | 500 nM | COc1cc(OC)cc(-c2nc3c([nH]2)c(=O)n(C)c(=O)n3C)c1
– | 380 nM | Cc1nn(C)c2c(=O)[nH]c(-c3ccc(N)cc3)nc12
– | 1500 nM | Cn1c(=O)c2[nH]c(Cc3ccccc3)nc2n(C)c1=O
– | 400 nM | Cc1ccc(-c2nc3c(C)nn(C)c3c(=O)[nH]2)cc1
